The values below come from BindingDB's records for doi:10.3109/14756366.2012.680062 (Shandong University, 2013).

For the experiment, the target named is T1, Aminopeptidase N (Sus scrofa, UniProt P15145).
T1 sequence (P15145 whole entry): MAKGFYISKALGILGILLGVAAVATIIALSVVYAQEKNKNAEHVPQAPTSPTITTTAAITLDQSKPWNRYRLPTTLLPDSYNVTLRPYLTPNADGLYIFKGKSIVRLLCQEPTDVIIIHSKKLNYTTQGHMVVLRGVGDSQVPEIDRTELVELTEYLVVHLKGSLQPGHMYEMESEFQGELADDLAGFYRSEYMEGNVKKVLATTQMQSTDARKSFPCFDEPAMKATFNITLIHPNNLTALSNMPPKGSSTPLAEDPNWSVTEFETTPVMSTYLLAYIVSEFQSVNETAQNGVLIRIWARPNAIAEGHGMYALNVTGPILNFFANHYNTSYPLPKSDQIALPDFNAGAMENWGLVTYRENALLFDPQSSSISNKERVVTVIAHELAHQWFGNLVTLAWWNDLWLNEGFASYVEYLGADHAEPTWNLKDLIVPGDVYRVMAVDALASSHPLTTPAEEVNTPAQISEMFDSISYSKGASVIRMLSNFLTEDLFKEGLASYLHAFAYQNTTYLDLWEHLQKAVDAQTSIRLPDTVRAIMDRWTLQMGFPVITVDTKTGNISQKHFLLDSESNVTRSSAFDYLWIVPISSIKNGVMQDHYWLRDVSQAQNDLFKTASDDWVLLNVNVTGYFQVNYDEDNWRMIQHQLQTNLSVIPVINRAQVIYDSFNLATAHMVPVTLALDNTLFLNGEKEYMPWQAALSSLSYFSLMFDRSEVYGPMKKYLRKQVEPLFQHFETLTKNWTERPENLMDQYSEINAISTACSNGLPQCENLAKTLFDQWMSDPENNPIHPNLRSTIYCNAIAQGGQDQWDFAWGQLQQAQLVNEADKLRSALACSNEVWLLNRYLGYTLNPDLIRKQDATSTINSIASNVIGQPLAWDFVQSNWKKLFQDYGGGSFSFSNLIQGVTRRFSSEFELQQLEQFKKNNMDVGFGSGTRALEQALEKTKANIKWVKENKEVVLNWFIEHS
Description: In Vitro APN Inhibition Assay. The conditions noted are these: pH 7.2.

As a reminder, the IC50 is the concentration at which inhibition is half-maximal. Lower therefore signals inhibition by little substance. Consider `CCC(C)[C@H](NC(=O)[C@H](Cc1ccccc1)NC(=O)[C@@H](O)CN)C(=O)O` (stereo partly drawn) [2-[2-(3-amino-2-hydroxypropanamido)-3-phenylpropanamido]-3-methylpentanoic acid (16a)], for which the concentration for half-maximal inhibition (IC50) was 30.4 µM. `CC(C)C[C@H](NC(=O)[C@@H](O)CN)C(=O)N[C@@H](Cc1ccc(O)cc1)C(=O)O` [L-isoserine-L-eucyl-L-tyrosinase (16m)]: the IC50 stood at 17.5 µM. With `CC(C)C[C@H](NC(=O)[C@@H](O)CN)C(=O)N[C@H](C(=O)O)C(C)C` [L-isoserine-L-leucyl-L-valine (16i)] the figure was 5.16 µM; with `NC[C@H](O)C(=O)N[C@@H](Cc1ccccc1)C(=O)N[C@@H](Cc1ccccc1)C(=O)O` [L-isoserine-L-phenylalanine-L-phenylalanine (16n)], 6.5 µM; with `CC(C)[C@H](NC(=O)[C@H](Cc1ccccc1)NC(=O)[C@@H](O)CN)C(=O)O` [L-isoserine-L-phenylalanine-L-valine (16b)], 94 µM.

In turn, `CC(C)C[C@H](NC(=O)[C@@H](NC(=O)[C@@H](O)CN)c1ccccc1)C(=O)O` [L-isoserine-L-phenylglycine-L-leucyl (16k)] had an IC50 of 11.6 µM. To `NC[C@H](O)C(=O)N[C@H](C(=O)N[C@@H](Cc1ccccc1)C(=O)O)c1ccccc1` [L-isoserine-L-phenylglycine-L-phenylalanine (16g)] belongs 5.8 µM; to `CC(C)[C@H](NC(=O)[C@@H](NC(=O)[C@@H](O)CN)c1ccccc1)C(=O)O` [L-isoserine-L-phenylglycine-L-valine (16c)], 51.5 µM. To `CC(C)C[C@H](NC(=O)[C@H](Cc1ccc(O)cc1)NC(=O)[C@@H](O)CN)C(=O)O` [L-isoserine-L-tyrosinase-L-leucyl (16l)] belongs 2.51 µM; to `CC(C)[C@H](NC(=O)[C@H](Cc1ccc(O)cc1)NC(=O)[C@@H](O)CN)C(=O)O` [L-isoserine-L-tyrosinase-L-valine (16e)], 11.5 µM; to `CC(C)C[C@H](NC(=O)[C@@H](NC(=O)[C@@H](O)CN)C(C)C)C(=O)O` [L-isoserine-L-valine-L-leucyl (16h)], 6.5 µM. To `CC(C)[C@H](NC(=O)[C@@H](O)CN)C(=O)N[C@@H](Cc1ccccc1)C(=O)O` [L-isoserine-L-valine-L-phenylalanine (16d)] belongs 30.2 µM; to `CC(C)[C@H](NC(=O)[C@@H](NC(=O)[C@@H](O)CN)C(C)C)C(=O)O` [L-isoserine-L-valine-L-valine (16f)], 13.6 µM.
